# In PMC9656702, “Unveiling a New Selenocyanate as a Multitarget Candidate with Anticancer, Antileishmanial and Antibacterial Potential” (Molecules, 2022):
# Assay: DPPH radical scavenging assay
# Settings: 0.06 mg/mL, after two hours
# Experimental: Oxidative stress has been associated with a wide range of pathologies. […] Measurements were performed at 2 concentrations and recorded at eight different time points. Ascorbic acid (Asc) and Trolox were used as positive controls. The results are presented as the percentage of DPPH radical scavenging activity and are outlined in Figure 2.
# The antioxidant activity of the selenocompounds was determined by the DPPH assay following a procedure previously published by our group. Briefly, the compounds were dissolved in absolute methanol at a concentration of 1 mg/mL, and a dilution was prepared. Asc and Trolox were used as positive controls. A methanolic solution (100 µM) of DPPH˙ was made daily and […]. The stability of the radical through the time of analysis was checked by absorbance measurements of this solution. A volume of 100 µL of DPPH in methanol was added to 100 µL of the compounds’ solutions to a final concentration of 0.03 or 0.06 mg/mL, and the decolorization of the purple radical to the yellowish reduced form was followed by recording the absorbance at 517 nm. Determinations were recorded at eight different time intervals from 0 to 120 min on a BioTeck PowerWave XS spectrophotometer and the data were collected using KCJunior software. All the measurements were carried out in triplicate. […]
row,SMILES,DPPH radical scavenging activity
1,"O=C(CC[Se]CC=Cc1ccccc1)[c-]1cccc1.[Fe+2].c1cc[cH-]c1 [Compound 1c, 3-(Cinnamylselanyl)-1-ferrocenylpropan-1-one]",72.6%
2,"O=C(CC[Se]Cc1ccc2c(c1)OCO2)[c-]1cccc1.[Fe+2].c1cc[cH-]c1 [Compound 2c, 3-((Benzo[d][1,3]dioxol-5-ylmethyl)selanyl)-1-ferrocenylpropan-1-one]",76.1%
